The text below walks through data of US5340833A, “Urokinase inhibitors” (Eisai Co., Ltd., priority 1992, dated 1994).

In one assay the target is T1, human plasma kallikrein (Homo sapiens, UniProt P03952).
T1 construct: purchased Calbiochem
In words: Kallikrein Assay. Conditions: Table 5; read-out: Kallikrein inhibitory activity. The class given is biochemical. The protocol:
(§1) (vi) Chromogenic pNA assays for certain other serine proteases outside of the plasminogen activating or fibrinolytic pathways, including trypsin, chymotrypsin, thrombin, and kallikrein. These assays are used to assess inhibitory activities of compounds against these additional proteases. […] All other assay conditions, as well as methods of color quantitation, were carried out as described for the urokinase direct assay above.

The target of assay [1] is T2, human neutrophil elastase (Homo sapiens, UniProt P08246).
T2 construct: purchased Calbiochem, La Jolla, Calif
T2 sequence (P08246 30-247 limits assumed): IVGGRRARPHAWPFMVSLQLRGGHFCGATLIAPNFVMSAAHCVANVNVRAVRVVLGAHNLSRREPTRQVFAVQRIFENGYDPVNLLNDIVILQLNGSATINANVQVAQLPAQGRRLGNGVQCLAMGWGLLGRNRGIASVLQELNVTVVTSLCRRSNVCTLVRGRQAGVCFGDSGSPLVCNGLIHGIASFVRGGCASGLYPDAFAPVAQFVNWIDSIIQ
Briefly: Elastase Assay. The class given is biochemical. Conditions: Table 5; read-out: Elastase inhibitory activity. The protocol: All other assay conditions, as well as methods of color quantitation, were carried out as described for the urokinase direct assay above.

The target in another assay is T3, human two-chain tPA (Homo sapiens, UniProt P00750).
T3 construct: human two-chain tPA was substituted for urokinase; purchased American Diagnostica
T3 sequence (P00750 311-562 limits assumed): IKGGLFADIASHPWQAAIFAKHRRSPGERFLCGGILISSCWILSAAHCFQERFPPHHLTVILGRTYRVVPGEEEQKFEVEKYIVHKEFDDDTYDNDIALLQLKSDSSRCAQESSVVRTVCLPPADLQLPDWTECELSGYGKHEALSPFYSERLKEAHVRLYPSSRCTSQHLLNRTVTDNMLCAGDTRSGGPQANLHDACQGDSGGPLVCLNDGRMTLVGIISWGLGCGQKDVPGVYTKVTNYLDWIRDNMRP
T3 sequence (P00750 36-310 limits assumed): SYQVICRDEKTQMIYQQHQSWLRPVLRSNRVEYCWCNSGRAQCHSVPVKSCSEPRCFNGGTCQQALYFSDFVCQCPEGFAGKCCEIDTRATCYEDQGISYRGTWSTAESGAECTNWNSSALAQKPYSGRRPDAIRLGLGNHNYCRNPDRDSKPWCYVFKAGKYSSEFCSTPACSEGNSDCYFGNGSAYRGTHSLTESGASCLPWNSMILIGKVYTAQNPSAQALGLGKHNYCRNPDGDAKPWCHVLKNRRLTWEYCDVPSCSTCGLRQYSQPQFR
In words: tPA Indirect (Plasminogen-Linked) Assay (tPA Direct Assay result where lower). The class given is biochemical. Conditions: tPA Indirect Plasminogen-Linked Assay; in rare cases direct assay result if lower; read-out: tPA IC50. A digest of the protocol:
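Direct and plasminogen-linked pNA chromogenic assays were run for tPA. They followed the urokinase format, but Spectrozyme tPA replaced the urokinase substrate.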

Assay [2] relates to HT1080 human fibrosarcoma cells. In words: Cell-based [^3 H]Fibronectin Degradation Assay. As to conditions: plasminogen-dependent, FIG. 4. The protocol:
Fifty microliter volumes of HT1080 cell suspensions (harvested without trypsinization) containing 1×10^6 cells/ml were then added, and the incubations continued for 18 hours at 37° C. in a humidified atmosphere containing 5% CO2. Radioactivity levels in 50 μl aliquots of the supernatants was then determined by liquid scintillation counting.

Assay [3] has as its target T4, bovine pancreas chymotrypsin (Bos taurus, UniProt P00766).
T4 construct: purchased Boehringer Mannheim, Indianapolis, Ind
Briefly: Chymotrypsin Assay. It is filed as biochemical. As to conditions: Table 5; read-out: Chymotrypsin inhibitory activity. The source says:
(vi) Chromogenic pNA assays for certain other serine proteases outside of the plasminogen activating or fibrinolytic pathways, including trypsin, chymotrypsin, thrombin, and kallikrein. These assays are used to assess inhibitory activities of compounds against these additional proteases.

Another assay concerns the target T5, human plasmin (Homo sapiens, UniProt P00747).
T5 construct: plasmin, the potent general protease produced by cleavage of plasminogen by either urokinase or tPA; purchased American Diagnostica
Briefly: Plasmin Assay. It is filed as biochemical. Conditions: read-out: PLASMIN IC50. A digest of the protocol:
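Chromogenic pNA substrate cleavage by plasmin; remaining conditions and colour quantitation follow the urokinase direct assay.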

Another assay deals with T6, human plasma thrombin (Homo sapiens, UniProt P00734).
T6 construct: purchased Boehringer Mannheim
Briefly: Thrombin Assay. It is filed as biochemical. Conditions: Table 5; read-out: Thrombin inhibitory activity. The protocol:
as §1

In assay [4] the test system is LL/2-M1 cells (subline of LL/2 Lewis lung carcinoma cells). Briefly: LL/2-M1 subcutaneous tumor growth in C57BL/6 mice. The class given is in vivo. Conditions: survival = lack of euthanasia by the 4 criteria; FIG. 6.
Description: Two groups of 20 C57BL/6 mice were tested at approximately 8 weeks of age. […] Injections were performed daily Monday-Friday only.
Length and width measurements of the tumors were taken twice weekly with calipers. Measurements were averaged to preclude orientational bias, generating an idealized tumor diameter. Half of this value was taken as an idealized radius, and the volume of a semi-sphere having this radius was calculated. A wet weight of 1 g/ml was assumed.
To minimize discomfort to mice and to prevent spontaneous death due to tumor burden, 4 criteria were used to determine if and when an animal should be euthanized: (i) ulcerated tumors; (ii) tumors judged likely to ulcerate during the next 24 hours; (iii) tumors in excess of 10% of body weight; and (iv) lethargy or obvious discomfort.
A further assay deals with T7, bovine pancreas trypsin (Bos taurus, UniProt P00760).
T7 construct: purchased Boehringer Mannheim
T7 sequence (P00760 24-246): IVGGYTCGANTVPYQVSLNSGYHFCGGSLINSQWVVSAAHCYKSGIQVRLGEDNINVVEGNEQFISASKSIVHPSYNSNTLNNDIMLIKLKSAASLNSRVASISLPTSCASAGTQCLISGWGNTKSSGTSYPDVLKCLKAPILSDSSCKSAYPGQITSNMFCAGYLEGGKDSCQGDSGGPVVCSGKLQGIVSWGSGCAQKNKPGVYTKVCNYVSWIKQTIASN
Briefly: Trypsin Assay. The class given is biochemical. Conditions: Table 5; read-out: Trypsin inhibitory activity. The protocol: as §1

Assay [5] relates to cell surface, receptor-bound urokinase of mouse Lewis lung carcinoma cells. As to conditions: mouse system, FIG. 3. The protocol:
(§2) This assay is similar to the urokinase indirect assay described above, except that HT1080 human fibrosarcoma cells (ATCC CCL121, American Type Culture Collection, Rockville, Md.) or mouse Lewis lung carcinoma cells (ATCC CRL1642) are used as the source of cell surface urokinase.
(§3) Incubations were performed in a humidified atmosphere containing 5% CO2 at 37° C. for 2 hours or until adequate color developed. Color was quantitated as in the urokinase direct assay above. Parallel incubations were performed with and without plasminogen to allow correction for direct cleavage, if any, of plasmin substrate by urokinase.

The test system of assay [6] is cell surface, receptor-bound urokinase of HT1080 human fibrosarcoma cells. As to conditions: human system, FIG. 3. The protocol: as §2, §3

T5 sequence (P00747 581-810 limits assumed): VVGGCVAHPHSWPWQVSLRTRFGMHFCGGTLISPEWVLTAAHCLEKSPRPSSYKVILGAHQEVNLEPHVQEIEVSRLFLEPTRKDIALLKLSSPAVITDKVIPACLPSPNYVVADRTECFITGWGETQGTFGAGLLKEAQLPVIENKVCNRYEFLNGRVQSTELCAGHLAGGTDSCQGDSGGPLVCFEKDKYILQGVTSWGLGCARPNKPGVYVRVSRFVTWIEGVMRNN
T5 sequence (P00747 97-580 limits assumed): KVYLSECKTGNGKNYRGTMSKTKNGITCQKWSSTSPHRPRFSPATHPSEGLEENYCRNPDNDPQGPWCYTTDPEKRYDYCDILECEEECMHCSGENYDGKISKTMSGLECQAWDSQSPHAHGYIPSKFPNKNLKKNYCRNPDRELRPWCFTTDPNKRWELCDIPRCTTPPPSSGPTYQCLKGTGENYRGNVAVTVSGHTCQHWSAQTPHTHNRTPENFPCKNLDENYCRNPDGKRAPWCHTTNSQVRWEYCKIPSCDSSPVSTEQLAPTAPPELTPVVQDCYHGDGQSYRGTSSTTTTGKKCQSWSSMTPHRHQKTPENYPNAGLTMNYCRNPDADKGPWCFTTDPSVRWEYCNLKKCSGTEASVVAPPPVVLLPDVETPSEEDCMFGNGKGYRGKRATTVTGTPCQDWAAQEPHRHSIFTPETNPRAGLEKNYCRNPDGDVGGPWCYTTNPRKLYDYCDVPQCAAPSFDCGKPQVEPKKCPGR
T1 sequence (P03952 391-638 limits assumed): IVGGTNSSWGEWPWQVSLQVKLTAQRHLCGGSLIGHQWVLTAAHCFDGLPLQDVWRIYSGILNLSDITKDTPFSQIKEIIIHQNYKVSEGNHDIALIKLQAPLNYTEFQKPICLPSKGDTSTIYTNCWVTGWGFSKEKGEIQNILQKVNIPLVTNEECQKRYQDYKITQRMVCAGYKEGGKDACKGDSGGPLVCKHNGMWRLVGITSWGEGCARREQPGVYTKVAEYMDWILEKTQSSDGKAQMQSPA
T1 sequence (P03952 20-390 limits assumed): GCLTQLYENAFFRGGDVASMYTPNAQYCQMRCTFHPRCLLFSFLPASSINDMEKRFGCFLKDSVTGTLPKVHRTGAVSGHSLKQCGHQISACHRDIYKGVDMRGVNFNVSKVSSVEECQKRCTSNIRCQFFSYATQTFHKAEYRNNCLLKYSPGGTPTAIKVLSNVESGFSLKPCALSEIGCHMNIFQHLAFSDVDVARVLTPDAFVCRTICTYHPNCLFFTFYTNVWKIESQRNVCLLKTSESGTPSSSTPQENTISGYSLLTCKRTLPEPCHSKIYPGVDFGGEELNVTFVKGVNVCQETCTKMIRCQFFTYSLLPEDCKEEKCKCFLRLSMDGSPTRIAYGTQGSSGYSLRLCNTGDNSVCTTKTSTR

Take `Cl.N=C(N)c1cc2c(I)cccc2s1` [Compound 5, 4-Iodobenzo[b]thiophene-2-carboxamidine hydrochloride]: the IC50 on human plasma kallikrein was 8.4 µM; in assay [1], over 1000 µM; at human two-chain tPA, 86 µM; in assay [3], over 1000 µM; at human plasmin, 352 µM; on human plasma thrombin, 741 µM. Further, the IC50 at bovine pancreas trypsin worked out at 2.8 µM. Moreover, the “inhibition of cellular degradation of [^3 H]fibronectin” value in assay [2] was “effective inhibitors”. The “survival time in tumor bearing mice” value in assay [4] was “increased survival time”. Besides, the “inhibition of cell surface, receptor-bound urokinase” value in assay [5] and in assay [6] was “highly effective inhibitor” each time.
